Where a name gives a salt, the structure may show the parent alone. Read-outs that look alike come from different tables or passages of the source.
What was measured:
thrombin = settings: literature value; cited from earlier work
human thrombin [1] = biological target: T1, human thrombin (Homo sapiens, UniProt P00734); settings: literature value; cited from earlier work
human factor VIIa = biological target: T2, human factor VIIa (Homo sapiens, UniProt P08709); test: Inhibition of Factor VIIa hydrolysis of chromogenic substrate S2288 (Ki); format: biochemical; settings: purified human factor VIIa, 0.05 M tris buffer, pH 7.6, read-out: Ki values for inhibition of Serine Proteases: Factor VIIa
T2 construct: 50 nM human factor VIIa (BiosPacific, Emeryville, Calif.); purchased BiosPacific, Emeryville, Calif
T2 sequence (P08709 213-466 limits assumed): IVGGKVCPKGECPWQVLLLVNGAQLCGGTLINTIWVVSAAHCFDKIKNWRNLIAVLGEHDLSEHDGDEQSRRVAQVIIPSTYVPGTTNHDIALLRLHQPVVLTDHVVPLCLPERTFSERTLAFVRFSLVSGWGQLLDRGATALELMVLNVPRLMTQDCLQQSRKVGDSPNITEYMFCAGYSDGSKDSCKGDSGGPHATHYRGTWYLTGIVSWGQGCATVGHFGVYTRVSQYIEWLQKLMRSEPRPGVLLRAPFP
T2 sequence (P08709 61-212 partner limits assumed): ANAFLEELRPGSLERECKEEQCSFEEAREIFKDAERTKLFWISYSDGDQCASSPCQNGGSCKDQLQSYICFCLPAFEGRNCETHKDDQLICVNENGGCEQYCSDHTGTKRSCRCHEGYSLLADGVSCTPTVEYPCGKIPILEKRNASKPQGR
Outline: (§1)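 Purified human proteases hydrolysed chromogenic substrates (thrombin S2238, Xa S2222, VIIa S2288), followed at 405 nm. Thrombin/Xa buffer: 0.10 M sodium phosphate pH 7.5, 0.20 M NaCl, 0.5% PEG 8000; VIIa: 0.05 M Tris pH 7.6, 0.10 M NaCl, 4 mM CaCl2, 0.1% BSA. Ki from velocities at 25–30 min.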

Thrombin time = Thrombin time (IC50), Table 80
human thrombin [2] = biological target: T1, human thrombin; test: Inhibition of thrombin hydrolysis of chromogenic substrate S2238 (Ki); format: biochemical; set-up: 0.2-0.5 nM human thrombin or human factor Xa; purchased Enzyme Research Laboratories, South Bend, Ind; settings: purified human thrombin, 0.10 M sodium phosphate buffer, pH 7.5, read-out: Ki values for inhibition of Serine Proteases: Trombin
Outline: as §1

human factor Xa = biological target: T3, human factor Xa (Homo sapiens, UniProt P00742); test: Inhibition of Factor Xa hydrolysis of chromogenic substrate S2222 (Ki); format: biochemical; settings: purified human factor Xa, 0.10 M sodium phosphate buffer, pH 7.5, read-out: Ki values for inhibition of Serine Proteases: Factor Xa
T3 construct: 0.2-0.5 nM human thrombin or human factor Xa; purchased Enzyme Research Laboratories, South Bend, Ind
Outline: as §1

T3 sequence (P00742 235-488 limits assumed): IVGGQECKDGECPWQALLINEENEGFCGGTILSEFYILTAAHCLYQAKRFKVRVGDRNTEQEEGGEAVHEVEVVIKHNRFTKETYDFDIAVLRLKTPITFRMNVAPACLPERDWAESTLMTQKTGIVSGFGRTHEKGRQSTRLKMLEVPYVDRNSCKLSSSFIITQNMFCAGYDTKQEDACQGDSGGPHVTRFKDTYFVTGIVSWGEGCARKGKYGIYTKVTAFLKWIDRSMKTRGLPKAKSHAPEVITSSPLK
T3 sequence (P00742 41-179 partner limits assumed): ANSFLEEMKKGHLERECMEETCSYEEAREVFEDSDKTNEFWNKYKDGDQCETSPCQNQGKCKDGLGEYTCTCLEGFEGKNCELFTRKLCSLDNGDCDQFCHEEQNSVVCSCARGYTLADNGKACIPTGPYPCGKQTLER

Compound	Ki (thrombin)	Ki (human thrombin [1])	Ki (human factor VIIa)	IC50 (Thrombin time)	Ki (human thrombin [2])	Ki (human factor Xa)
N#CC(CCCNC(=N)N)NC(=O)[C@@H]1CCCN1C(=O)[C@H](N)Cc1ccccc1 (stereo partly drawn) [D-phenylalanyl-prolyl-NHCH((CH2)3 NHC(=NH)NH2)--CN]	700 nM	–	–	–	–	–
N=C(N)NCCC[C@@H](C=O)NC(=O)[C@@H]1CCCN1C(=O)[C@H](N)Cc1ccccc1 [D-phenylalanyl-prolyl-arginal]	–	75 nM	–	–	–	–
NCCCCC(NC(=O)CN(CCc1ccccc1C1CC1)C(=O)CCc1ccccc1)B(O)O (centres unmarked) [Example 53.1.2, Hydrocinnamoyl-[N-(2-(Cyclopropyl)-Phenethyl)-Gly]-boroLys--OH HCl]	–	–	< 500 nM	< 500 nM	< 500 nM	< 500 nM
CC1(C)C2CC3OB(C(CCCCN)NC(=O)CN(CCc4ccccc4C4CC4)C(=O)CCc4ccccc4)OC3(C)C1C2 (centres unmarked) [Example 54.1.2, Hydrocinnamoyl-[N-(2-(Cyclopropyl)-Phenethyl)-Gly]-boroLys-C10H16 HCl]	–	–	< 500 nM	< 500 nM	< 500 nM	< 50000 nM
CC1(C)C2CC3OB(C(CCCCN)NC(=O)CN(C(=O)CCc4ccccc4)C4CC4)OC3(C)C1C2 (centres unmarked) [Example 54.4.2, Hydrocinnamoyl-[N-(Cyclopropyl)-Gly]-boroLys-C10H16 HCl]	–	–	< 500 nM	< 500 nM	< 500 nM	< 50000 nM
CC1(C)C2CC3OB(C(CCCCN)NC(=O)CN(C(=O)CCc4ccccc4)C4CCCCC4)OC3(C)C1C2 (centres unmarked) [Example 54.4.3, Hydrocinnamoyl-[N-(Cyclohexyl)-Gly]-boroLys-C10H16 HCl]	–	–	< 500 nM	< 50000 nM	< 500 nM	< 50000 nM
CN(CC(=O)NC(CCCCN)B1OC2CC3CC(C3(C)C)C2(C)O1)C(=O)c1ccccc1Sc1ccccc1C#N (centres unmarked) [Example 62.4.3, (2-(2-Cyano)-Thiophenyl)-Benzoyl-Sar-boroLys-C10H16 HCl]	–	–	< 50000 nM	< 50000 nM	< 500 nM	< 500 nM
NCCCCC(NC(=O)CN(CCc1ccccc1)C(=O)CCCC(=O)O)B(O)O (centres unmarked) [Example 66.1.1, Glutaryl-[N-(Phenethyl)-Gly]-boroLys--OH HCl]	–	–	< 50000 nM	< 50000 nM	< 500 nM	< 500 nM
COC(=O)CCC(=O)N(CCc1ccccc1)CC(=O)NC(CCCCN)B(O)O (centres unmarked) [Example 68.3.3, Methyl Succinyl-[N-(Phenethyl)-Gly]-boroLys--OH HCl]	–	–	< 50000 nM	< 50000 nM	< 500 nM	< 50000 nM
COC(=O)CCCC(=O)N(CCc1ccccc1)CC(=O)NC(CCCCN)B(O)O (centres unmarked) [Example 68.4.1, Methyl Glutaryl-[N-(Phenethyl)-Gly]-boroLys--OH HCl]	–	–	< 50000 nM	< 50000 nM	< 500 nM	< 500 nM
CC1(C)C2CC3OB(C(CCCCN)NC(=O)CN(CCc4ccccc4)C(=O)CCCC(=O)O)OC3(C)C1C2 (centres unmarked) [Example 69.1.1, Glutaryl-[N-(Phenethyl)-Gly]-boroLys-C10H16]	–	–	< 50000 nM	< 50000 nM	< 500 nM	< 500 nM
CC1(C)C2CC3OB(C(CCCCN)NC(=O)CN(CCc4ccccc4)C(=O)CNS(C)(=O)=O)OC3(C)C1C2 (centres unmarked) [Example 69.3.2, Methanesulfonyl-Gly-[N-(Phenethyl)-Gly]-boroLys-C10H16 HCl]	–	–	< 500 nM	< 500 nM	< 500 nM	< 500 nM
Hydrocinnamoyl-Sar-Lys[CH(OH)(OCH3)--C(=O)--OCH3] HCl [Example 61.4.1]	–	–	< 50000 nM	< 50000 nM	< 500 nM	< 50000 nM
Methanesulfonyl-Gly-[N-(N-(Methyl)-Benzyl)-Gly]-boroLys--OH HCl [Example 66.3.2]	–	–	< 500 nM	< 500 nM	< 500 nM	< 500 nM
